Experimental data: patent publication US20250009844A1, “MATURATION OF MUCOSAL DEFENSE AND GUT/LUNG FUNCTION IN THE PRETERM INFANT” (Novozymes A/S, priority 2017, published 2025)
Entries after “also recorded” stand apart in the source; their conditions may differ. No end group written: not given here.

How the values were obtained:
[1] = Therapeutic high fat diet model in diet-induced obese mice, weight and fat percentage (Example 2); format: in vivo; settings: HFD plus hBD-2 vs standard HFD
Source text: The overall design of the study is shown in FIG. 1, lower panel, “Therapeutic study”. Mice and diets. The experiment elucidates the effect of hBD-2 and HD5 on the microbiota in diet-induced obese mice. A run-in period of 13 weeks where mice were fed a very HFD (60% energy from fat) preceded the intervention. Only mice meeting the criteria of a minimum of 12 gram weight gain (approximately 50% of initial bodyweight) during the run-in period were included in the final analyses. […] They were exposed to all experimental tests, but excluded from the analyses.
Treatment regimen. Before the intervention all mice were MR scanned. Cages of mice were allocated to experimental groups based on their fat mass. All subsequent measures were paired with data from the same mouse before the intervention. A LFD (low fat diet) reference group was running in parallel. As controls for the intervention 2 additional groups were included: a) very HFD and b) LFD. Experimental mice stayed on the very HFD during the intervention. The mice were on the experimental diet for 10 weeks. They were co-housed throughout the experiment, 4 mice per cage, 3 cages per group. All tests ran over 3 days, 1 cage per group per day.

[2] = test system: BALB/c mice; test: Therapeutic intervention in murine house dust mite/Freund's complete adjuvant driven model of allergic asthma, histopathology and cytokines (Example 7); format: in vivo; settings: for Histological inflammation of lung tissue: vs HDM challenged vehicle
Protocol: Treatment regime: Female 7-10 weeks old BALB/c mice randomly allocated into 4 study groups one day prior to study start were subcutaneously (SC) sensitized to house dust mite (100 μg HDM in 200 μL saline plus Freund's complete adjuvant in 0.9% saline). Mice were intranasally (IN) challenged with HDM on day 14 (HDM 25 μg in 50 μL of saline). hBD-2 was administered IN or orally (0.4 mg/kg TID IN; 0.4 mg/kg TID orally, 50 μL phosphate buffered saline) on day 14. The initial dose was administered 60 minutes prior to challenge, and the subsequent doses approximately 6 hours apart (FIG. 3, groups 1-4)).
Blood sampling: All terminal blood samples were collected via jugular vein bleeds. Blood was sampled to Li-heparin tubes, put on ice and immediately centrifuged at 4° C. Plasma was separated and stored at −80° C. until the potential SCFA analysis. Lung tissue sampling: The lungs were exposed and excised by gently opening the thorax and by cutting down either side of the sternum and ribs and trimming back. […]
Cellular influx (mononuclears, eosinophils, neutrophils) was assessed semi-quantitatively on H&E stained slides separately for peri-bronchial/bronchiolar and perivascular space as follows: • 0 absent • 1 few scattered inflammatory cells • 2 larger aggregates • 3 marked accumulation of cells
Overall score for inflammation was calculated as the sum of all individual scores. Goblet cell metaplasia, separately at a level of large airways and distal airways, was assessed at PAS-stained slides as follows: • 0 no mucus containing cells along basement membrane • 1 few positive cells along basement membrane with less than 75% of the cytoplasm stained • 2 few positive cells along basement membrane with more than 75% of the cytoplasm stained • 3 numerous positive cells along basement membrane with less than 75% of the cytoplasm stained • 4 numerous positive cells along basement membrane with more than 75% of the cytoplasm stained […]

[3] = test system: PBMC cells; test: PBMC cell viability, Alamar Blue, 24 hours (Example 8); format: cell-based, human; settings: 1, 10 and 40 μg/ml, 0.6 and 20.0 pg/ml LPS
Protocol: FIG. 39. Cell viability of PBMC cells following exposure for 24 hours to Alamar Blue and HD5, hBD-1, hBD-2, hBD-3 and hBD-4 at concentrations of 1, 10 and 40 μg/ml.
PBMC cell viability following exposure for 24 hours to Alamar Blue and HD5,hBD-1, hBD-2, hBD-3 and hBD-4 at concentrations of 1, 10 and 40 μg/ml at 0.6 and 20.0 pg/ml LPS respectively (FIG. 39).

[4] = test system: postnatal day 14 C57BL/6J mice; test: Dithizone/Klebsiella induced necrotizing enterocolitis murine model (Example 9); format: in vivo
Source text: FIG. 40. Histological scoring system for evaluation of severity of necrotizing enterocolitis in a murine model of Klebsiella/Dithizone induced necrotizing enterocolitis. >2 indicates significant gut inflammation.
Incidence of necrotizing enterocolitis and IL-22 concentration in a murine model of necrotizing enterocolitis. Intestinal mucosal injury consistent with human necrotizing enterocolitis was induced by a combination of Dithizone followed by Klebsiella pneumonia challenge by oral gavage in postnatal day 14 C57BL/6J mice. The severity of necrotizing enterocolitis was assessed by a histological scoring system with a score of >2 indicating significant damage (FIG. 40). Neither Dithizone nor K. pneumonia challenge induced mucosal injury by themselves, but the combination of Dithizone followed by K. pneumonia challenge induced severe and statistically significant mucosal damage measured 16 hours post challenge (FIG. 41).

Which Weight gain ([1]; first 4 weeks post dietary intervention, p=0.07) does the source give for “human beta defensin 2 (GIGDPVTCLKSGAICHPVFCPRRYKQIGTCGLPGTKCCKKP; ends and bridges not checked; cysteine pairing not given here; listed as Homo sapiens) [hBD-2]” here?
Its Weight gain is “tended to gain less weight the first 4 weeks post dietary intervention, although not significant”.

What about the Weight gain ([1]; from week 4 to the end of the study period, p=0.82) of the same substance?
Its Weight gain is “gained similar weight as the standard HFD group”.

And the “Histological inflammation of lung tissue” value ([2]; intranasal 0.4 mg/kg TID on day 14)?
The value was “effectively inhibited the increase in histological inflammation of lung tissue”.

And the “Histological inflammation of lung tissue” value ([2]; oral 0.4 mg/kg TID on day 14)?
The value was “effectively inhibited the increase in histological inflammation of lung tissue”.

And the “IL-5 level in lung tissue homogenate” value ([2]; oral administration)?
The value was “Significant effects”.

And the “Toxicity (PBMC cell viability)” value [3]?
Its value is “not toxic irrespectively of concentration; also recorded: not to be toxic”.

What about the “Concentration of IL-22” value ([4]; 1.2 mg/kg one hour post challenge, 9 hours post challenge) of the same substance?
The value was “statistically significant gut mucosa protective increase of IL-22; also recorded: statistically significantly increased”.

What about the “Incidence of necrotizing enterocolitis (histological score >2)” value ([4]; oral 1.2 mg/kg one dose one hour post K. pneumonia challenge, 16 hours post challenge) of the same substance?
Its value is “statistically significant reduction of the incidence of necrotizing enterocolitis; also recorded: dramatically and statistically significantly reduced the incidence of necrotizing enterocolitis to normal”.
